Reference: publication PMC6948153 (ACS chemical biology, 2019)
“Also recorded” adds a separate entry of the source. Read-outs that look alike come from different tables or passages of the source.

Tests used:
[1] = biological target: T1, RhlI (Pseudomonas aeruginosa, UniProt P54291); details: N-butyryl L-homoserine lactone even at 1 mM; ref 21 (Parsek et al.); cited from earlier work
[2] = biological target: T1, RhlI; assay: RhlI enzymatic assay; assay type: biochemical; details: for effect on RhlI activity (inhibition / activation): initial rate with increasing concentrations of compound
[3] = biological target: T1, RhlI; assay: Inhibition of RhlI by inert alkyl-ACP / alkyl-CoA substrate analogs; assay type: biochemical; details: for effect of preincubation of RhlI with inhibitor on % inhibition or IC50: inhibition neither slow-binding nor time-dependent; for inhibition mode: substrate-velocity measurements at different alkyl-ACP concentrations
[4] = biological target: tag-free RhlI (Pseudomonas aeruginosa, UniProt P54291); assay: Km and IC50 with tag-free RhlI; assay type: biochemical
tag-free RhlI, sequence (P54291 whole entry): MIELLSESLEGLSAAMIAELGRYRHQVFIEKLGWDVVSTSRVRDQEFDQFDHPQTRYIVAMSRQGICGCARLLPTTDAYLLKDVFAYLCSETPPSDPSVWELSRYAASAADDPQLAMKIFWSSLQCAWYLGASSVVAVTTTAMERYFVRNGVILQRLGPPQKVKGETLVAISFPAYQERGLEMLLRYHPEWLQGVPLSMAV

[5] = biological target: T1, RhlI; assay: Substrate kinetics of acyl-ACPs with RhlI; assay type: biochemical; details: acyl-ACP substrate with RhlI
[6] = inert substrate analog with RhlI

T1 sequence (P54291 whole entry): as above

Question: For `CSC[C@H]1O[C@@H](n2cnc3c(N)ncnc32)[C@H](O)[C@@H]1O` [MTA], which “inhibition of RhlI” value [1] is on record?
Answer: Its value is “weak inhibitors”.

Question: For `CCCC(=O)N[C@H]1CCOC1=O` [compound 1, N-butyryl-L-homoserine lactone], which “effect on RhlI activity (inhibition / activation)” value (from here on “effect … (inhibition / activation)”) [2] is on record?
Answer: Its value is “did not inhibit”.

Question: What about the “inhibition of RhlI” value [1] of the same molecule?
Answer: Its value is “no inhibition”.

Question: For `CCCC(=O)N[C@@H]1CCOC1=O` [compound 5, C4-D-HSL], which IC50 [2] is on record?
Answer: The IC50 was 688 ± 91 µM.

Question: What about the “effect … (inhibition / activation)” value [2] of the same molecule?
Answer: The value was “decreased the rate”.

Question: For `CCCC(=O)N[C@H]1CCSC1=O` [compound 8, C4-L-HCTL], which “effect … (inhibition / activation)” value [2] is on record?
Answer: Its value is “failed to inhibit; also recorded: did not inhibit”.

Question: With `O=C(CCCc1ccccc1)N[C@@H]1CCOC1=O` [compound 31, 4-phenylbutanoyl-D-HSL] as the molecule, how does the IC50 [2] read?
Answer: The IC50 was 20 ± 10 µM.

Question: For `CCCC(=O)CC(=O)N[C@@H]1CCOC1=O` [compound 34, 3-oxoC6-D-HSL], which EC50 [2] is on record?
Answer: Its EC50 is 224 ± 55 µM.

Question: With `CCCCCC(=O)CC(=O)N[C@@H]1CCOC1=O` [compound 35, 3-oxoC8-D-HSL] as the molecule, how does the IC50 [2] read?
Answer: Its IC50 is 282 ± 34 µM.

Question: For `CCCCCCCCCCCC(=O)N[C@H]1CCSC1=O` [compound 46, C12-L-HCTL], which IC50 [2] is on record?
Answer: The IC50 was 387 ± 89 µM.

Question: Which IC50 [2] does the source give for `CCCCCCCCCC(=O)CC(=O)N[C@H]1CCSC1=O` [compound 55, 3-oxoC12-L-HCTL] here?
Answer: Its IC50 is 621 ± 50 µM.

Question: With `CCCCCCCCCCCC(=O)N[C@@H]1CCSC1=O` [compound 60, C12-D-homocysteine thiolactone] as the molecule, how does the IC50 [2] read?
Answer: Its IC50 is 11 ± 1 µM.

Question: And the “fold lower IC50 than L-thiolactone counterpart compound 46” value ([2]; IC50 of 60 versus IC50 of 46)?
Answer: The value was “about 34 fold”.

Question: Which EC50 [2] does the source give for `CCCC(=O)CC(=O)N[C@@H]1CCSC1=O` [compound 61, 3-oxoC6-D-HCTL] here?
Answer: Its EC50 is 1510 ± 110 µM.

Question: And the “effect … (inhibition / activation)” value [2]?
Answer: Its value is “activated”.

Question: With `CCCCCC(=O)CC(=O)N[C@@H]1CCSC1=O` [compound 62, 3-oxoC8-D-HCTL] as the molecule, how does the EC50 [2] read?
Answer: The EC50 was 855 ± 74 µM.

Question: What about the “effect … (inhibition / activation)” value [2] of the same molecule?
Answer: Its value is “activated”.

Question: Which EC50 [2] does the source give for `CCCCCCCC(=O)CC(=O)N[C@@H]1CCSC1=O` [compound 63, 3-oxoC10-D-HCTL] here?
Answer: The EC50 was 57 ± 23 µM.

Question: What about the “effect … (inhibition / activation)” value [2] of the same molecule?
Answer: The value was “activated”.

Question: For `CCCCCCCCCC(=O)CC(=O)N[C@@H]1CCSC1=O` [compound 64, 3-oxoC12-D-HCTL], which IC50 [2] is on record?
Answer: The IC50 was 127 ± 70 µM.

Question: And the “effect … (inhibition / activation)” value [2]?
Answer: The value was “inhibited”.

Question: Which “effect … (inhibition / activation)” value [2] does the source give for `N[C@H]1CCOC1=O` [compound 71, L-HSL] here?
Answer: The value was “None of these compounds or combinations had any effect on RhlI activity”.

Question: With `N[C@@H]1CCOC1=O` [compound 72, D-HSL] as the molecule, how does the “effect … (inhibition / activation)” value [2] read?
Answer: The value was “None of these compounds or combinations had any effect on RhlI activity”.

Question: Which “effect … (inhibition / activation)” value [2] does the source give for `N[C@H]1CCSC1=O` [compound 73, L-HCTL] here?
Answer: Its value is “None of these compounds or combinations had any effect on RhlI activity”.

Question: With `N[C@@H]1CCSC1=O` [compound 74, D-HCTL] as the molecule, how does the “effect … (inhibition / activation)” value [2] read?
Answer: The value was “None of these compounds or combinations had any effect on RhlI activity”.

Question: With `CCCC(=O)O` [compound 75, butyric acid] as the molecule, how does the “effect … (inhibition / activation)” value [2] read?
Answer: Its value is “None of these compounds or combinations had any effect on RhlI activity”.

Question: Which “effect … (inhibition / activation)” value [2] does the source give for `CCCCCC(=O)O` [compound 76, hexanoic acid] here?
Answer: Its value is “None of these compounds or combinations had any effect on RhlI activity”.

Question: Which “effect … (inhibition / activation)” value [2] does the source give for `CCCCCCCCCC(=O)O` [compound 78, decanoic acid] here?
Answer: The value was “None of these compounds or combinations had any effect on RhlI activity”.

Question: Which “effect … (inhibition / activation)” value [2] does the source give for `CCCCCCCCCCCC(=O)O` [compound 79, dodecanoic acid] here?
Answer: Its value is “None of these compounds or combinations had any effect on RhlI activity”.

Question: With `CCCCSCCNC(=O)CCNC(=O)[C@H](O)C(C)(C)COP(=O)(O)OP(=O)(O)OC[C@H]1O[C@@H](n2cnc3c(N)ncnc32)[C@H](O)[C@@H]1OP(=O)(O)O` [compound 89, butyl-CoA] as the molecule, how does the “inhibition of RhlI” value ([3]; up to 1 mM) read?
Answer: Its value is “not inhibiting”.

Question: For `CCCCCCSCCNC(=O)CCNC(=O)[C@H](O)C(C)(C)COP(=O)(O)OP(=O)(O)OC[C@H]1O[C@@H](n2cnc3c(N)ncnc32)[C@H](O)[C@@H]1OP(=O)(O)O` [compound 90, hexyl-CoA], which IC50 [3] is on record?
Answer: The IC50 was 70 ± 10 µM.

Question: For `CCCCCCCCSCCNC(=O)CCNC(=O)[C@H](O)C(C)(C)COP(=O)(O)OP(=O)(O)OC[C@H]1O[C@@H](n2cnc3c(N)ncnc32)[C@H](O)[C@@H]1OP(=O)(O)O` [compound 91, octyl-CoA], which IC50 [3] is on record?
Answer: The IC50 was 5.1 ± 0.8 µM.

Question: Which results are given for butyl-ACP [compound 85]?
Answer: IC50 with untagged RhlI compared with MBP-tagged enzyme [4]: almost identical; IC50 [3, 6]: 9.9 ± 4 µM; Ki [3, 6]: 15.9 ± 0.9 µM; effect of preincubation of RhlI with inhibitor on % inhibition or IC50 [3]: did not significantly alter; inhibition mode [3]: noncompetitive

Question: For butyryl-ACP [compound 80], which “Km with untagged RhlI compared with MBP-tagged enzyme” value [4] is on record?
Answer: The value was “almost identical”.

Question: And the Km [5]?
Answer: The Km was 7.3 ± 2.1 µM.

Question: And the kcat [5]?
Answer: Its kcat is 0.0433 ± 0.005 s⁻¹.

Question: And the Km ([5]; listed as C4-ACP)?
Answer: Its Km is 7 µM.

Question: What does the source list for decanoyl-ACP [compound 83]?
Answer: Km [5]: 0.14 ± 0.04 µM; kcat [5]: 0.00633 ± 0.00017 s⁻¹

Question: What does the source list for decyl-ACP [compound 88]?
Answer: IC50 [3, 6]: 0.1 ± 0.04 µM; Ki [3, 6]: 4.8 ± 0.3 µM; inhibition mode [3]: noncompetitive

Question: Which results are given for dodecanoyl-ACP [compound 84]?
Answer: Km [5]: 0.26 ± 0.03 µM; kcat [5]: 0.01 ± 0.00017 s⁻¹; Km ([5]; listed as C12-ACP): ~0.2 µM

Question: For hexanoyl-ACP [compound 81], which Km [5] is on record?
Answer: The Km was 1.2 ± 0.2 µM.

Question: And the kcat [5]?
Answer: Its kcat is 0.0143 ± 0.00033 s⁻¹.

Question: For hexyl-ACP [compound 86], which IC50 [3, 6] is on record?
Answer: Its IC50 is 0.7 ± 0.4 µM.

Question: What about the Ki [3, 6] of the same molecule?
Answer: Its Ki is 10.6 ± 1.1 µM.

Question: And the inhibition mode [3]?
Answer: The inhibition mode was “noncompetitive”.

Question: With “holo-ACP: holo acyl carrier protein, product of the RhlI reaction” as the molecule, how does the “inhibition of RhlI” value [1] read?
Answer: Its value is “weak inhibitors”.

Question: For octanoyl-ACP [compound 82], which “Km with untagged RhlI compared with MBP-tagged enzyme” value [4] is on record?
Answer: The value was “almost identical”.

Question: And the Km [5]?
Answer: The Km was 0.4 ± 0.06 µM.

Question: And the kcat [5]?
Answer: The kcat was 0.01 ± 0.00033 s⁻¹.

Question: Which results are given for octyl-ACP [compound 87]?
Answer: IC50 with untagged RhlI compared with MBP-tagged enzyme [4]: almost identical; IC50 [3, 6]: 0.06 ± 0.02 µM; Ki [3, 6]: 6.5 ± 0.7 µM; effect of preincubation of RhlI with inhibitor on % inhibition or IC50 [3]: did not significantly alter; inhibition mode [3]: noncompetitive
